Article PMC10791743, “Selective CK1α degraders exert antiproliferative activity against a broad range of human cancer cell lines” (Nature Communications, 2024)

Key:
Experiment in all cases: cells
Design in all cases: Oncolines panel cell viability, ATPlite 1Step luminescence, duplicate 9-point dose response, IC50
A388 = settings: 72 h viability; read-out: SJ3149
Protocol: (§1) Cell viability assays were performed as previously described. In brief, cells were seeded in a 384-well plate at an optimized density. The starting cell number was determined after 24 h incubation by adding ATPlite 1Step (Perkin Elmer, Groningen, the Netherlands) to each well and recording luminescence on an Envision multimode reader (Perkin Elmer, Waltham, MA). After the addition of a duplicate 9-point dilution series of SJ3149, cells were incubated for another 72 h, followed by cell counting using ATPlite 1Step. The dilution series ranged from 3.2 to 31,600 nM or was diluted 100-fold for the most sensitive cell lines to ideally capture the complete dose–response curve. Percentage viability was determined at each compound concentration by relating the observed signal to a vehicle-treated control, that is, medium containing 0.4% (v/v) DMSO. Compound IC50 values were calculated by fitting a 4-parameter logistic curve to the percentage viability values using IDBS XLfit5 (IDBS, Guildford, UK). The IC50 was limited to the maximum tested compound concentration when the IC50 exceeded the maximum tested concentration. […] To evaluate the compound’s effect and potential therapeutic application across a diverse range of human cancers, we profiled SJ3149 in Oncolines® panel consisting of 115 human cancer cell lines, of which 86 were solid tumor and 29 hematologic cell lines, including MOLM-13. Effect on cell viability was monitored using ATPLite™ (Perkin Elmer), which measures intracellular ATP content as an indirect readout of cell number, like CellTiter Glo.

BxPC-3 = settings: Homo sapiens, BXPC-3; 72 h viability; read-out: SJ3149
Protocol: as §1

CCF-STTG1 = settings: Homo sapiens, CCF-STTG1; 72 h viability; read-out: SJ3149
Protocol: as §1

COLO 205 = settings: Homo sapiens, COLO 205; 72 h viability; read-out: SJ3149
Protocol: as §1

COLO 829 = settings: Homo sapiens, COLO-829; 72 h viability; read-out: SJ3149
Protocol: as §1

Daoy = settings: Homo sapiens, Daoy; 72 h viability; read-out: SJ3149
Protocol: as §1

HT = settings: Homo sapiens, HT; 72 h viability; read-out: SJ3149
Protocol: as §1

Hs 766T = settings: Hs766T; 72 h viability; read-out: SJ3149
Protocol: as §1

K-562 = settings: Homo sapiens, K562; 72 h viability; read-out: SJ3149
Protocol: as §1

Kasumi-1 = settings: Homo sapiens, Kasumi 1; 72 h viability; read-out: SJ3149
Protocol: as §1

MeWo = settings: Homo sapiens, MeWo; 72 h viability; read-out: SJ3149
Protocol: as §1

NCI-H661 = settings: Homo sapiens, NCI-H661; 72 h viability; read-out: SJ3149
Protocol: as §1

PL-21 = settings: PL-21; 72 h viability; read-out: SJ3149
Protocol: as §1

RPMI-7951 = settings: Homo sapiens, RPMI-7951; 72 h viability; read-out: SJ3149
Protocol: as §1

SHP-77 = settings: Homo sapiens, SHP77; 72 h viability; read-out: SJ3149
Protocol: as §1

SK-N-AS = settings: Homo sapiens, SK-N-AS; 72 h viability; read-out: SJ3149
Protocol: as §1

SNU-5 = settings: Homo sapiens, SNU-5; 72 h viability; read-out: SJ3149
Protocol: as §1

SUP-T1 = settings: Homo sapiens, SUP-T1; 72 h viability; read-out: SJ3149
Protocol: as §1

SW620 = settings: Homo sapiens, SW-620; 72 h viability; read-out: SJ3149
Protocol: as §1

SW948 = settings: Homo sapiens, SW948; 72 h viability; read-out: SJ3149
Protocol: as §1

Measured: IC50

O=C1CCC(N2Cc3cc(Nc4noc5ccccc45)ccc3C2=O)C(=O)N1 (centres unmarked) [SJ3149]
> 31.6 µM: all assays above
